From ChEMBL document CHEMBL1201862, “PubChem BioAssay data set” (2004) come the findings set out here.

The nature of assay [1]: Luminescent dose response cell-based high throughput screening assay for inhibitors of the Janus kinase 2 mutant JAK2V617F. [Related pubchem assays: 1446 (Primary screen.), 1521 (Confirmation assay.), 1486 (Counter screen.)]. The assay is classed as functional. Background: The purpose of a counterscreen is to sort out artefacts and off-target activity.
For assay [2], the system named is BJ. The assay can be described thus: cytotoxicity toward BJ-TERT fibroblasts, dose response, cell-based, RAS-independent, luminescence (AID 1933). It counts as functional. The following applies: Homo sapiens.
The nature of assay [3]: cells. The assay is classed as functional, cell-based.
In assay [4] the test system is BJ. Kind of assay: cells. The assay is classed as functional, cell-based. The conditions noted are these: Homo sapiens.
The nature of assay [5]: cells. It counts as functional, cell-based. The source holds these as a separate data set.
The subject of assay [6] is BJ. The assay can be described thus: cytotoxicity toward BJ-TERT-LT-ST fibroblasts, dose response, cell-based, RAS-independent, luminescence (AID 1935).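 Also: BJ fibroblasts immortalized with TERT plus LT and ST oncogenes.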 The assay is classed as functional. The conditions noted are these: Homo sapiens.
A short description of assay [7]: cytotoxicity toward DRD oncogenic fibroblasts, dose response, cell-based, non-viral oncogenic, luminescence (AID 1934). The assay is classed as functional. The following applies: Homo sapiens.
For a further assay, the target named is T1, Hexokinase HKDC1 (Homo sapiens, UniProt Q2TB90).
T1 sequence (Q2TB90 whole entry): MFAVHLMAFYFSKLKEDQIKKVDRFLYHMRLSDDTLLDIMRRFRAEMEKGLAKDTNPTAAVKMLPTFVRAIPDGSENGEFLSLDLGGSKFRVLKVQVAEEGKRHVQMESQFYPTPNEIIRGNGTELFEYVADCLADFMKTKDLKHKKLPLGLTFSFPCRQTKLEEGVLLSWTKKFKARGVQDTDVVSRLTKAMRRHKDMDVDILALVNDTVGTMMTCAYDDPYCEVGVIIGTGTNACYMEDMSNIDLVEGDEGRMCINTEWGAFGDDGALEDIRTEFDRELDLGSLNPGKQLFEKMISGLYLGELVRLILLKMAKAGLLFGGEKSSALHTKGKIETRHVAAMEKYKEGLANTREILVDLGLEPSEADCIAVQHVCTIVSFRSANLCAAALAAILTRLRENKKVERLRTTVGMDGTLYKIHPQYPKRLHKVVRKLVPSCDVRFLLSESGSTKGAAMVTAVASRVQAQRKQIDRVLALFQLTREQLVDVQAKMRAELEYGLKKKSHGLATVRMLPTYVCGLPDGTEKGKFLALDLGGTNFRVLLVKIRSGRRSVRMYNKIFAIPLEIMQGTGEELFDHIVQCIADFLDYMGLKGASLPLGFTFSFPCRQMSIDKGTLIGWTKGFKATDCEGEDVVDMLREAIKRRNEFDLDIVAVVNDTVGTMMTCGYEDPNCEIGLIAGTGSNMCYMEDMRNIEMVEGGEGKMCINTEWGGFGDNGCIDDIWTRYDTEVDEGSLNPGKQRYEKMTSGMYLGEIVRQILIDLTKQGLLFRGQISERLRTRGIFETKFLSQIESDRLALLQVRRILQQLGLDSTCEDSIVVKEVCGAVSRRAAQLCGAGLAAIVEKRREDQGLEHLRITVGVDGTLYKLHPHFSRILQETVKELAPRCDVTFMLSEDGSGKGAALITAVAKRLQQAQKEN
The assay can be described thus: HKDC1 hexokinase inhibitors, dose response, biochemical, W721R variant (AID 504729). It counts as functional.

Another assay concerns Vero. The assay can be described thus: cells. The assay is classed as functional. The conditions noted are these: Chlorocebus sabaeus.
The nature of assay [8]: Fluorescence-based cell-based high throughput dose response assay for inhibitors of the interaction of nucleotide-binding oligomerization domain containing 2 (NOD2) and the receptor-interacting serine-threonine kinase 2 (RIPK2). The assay is classed as functional. The conditions noted are these: Homo sapiens.
Assay [9] can be described thus: M. tuberculosis growth inhibition, HTS (AID 449762). It counts as functional.
For assay [10], the target named is T2, Bcl-2-related protein A1 (Mus musculus, UniProt Q07440).
T2 sequence (Q07440 whole entry): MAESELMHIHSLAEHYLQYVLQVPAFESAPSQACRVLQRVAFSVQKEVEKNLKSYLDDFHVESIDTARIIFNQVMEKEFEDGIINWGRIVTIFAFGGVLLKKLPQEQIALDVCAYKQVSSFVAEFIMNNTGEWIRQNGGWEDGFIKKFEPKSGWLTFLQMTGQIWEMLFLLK
Kind of assay: Bfl-1 inhibitors, primary screen, biochemical, fluorescence polarization, FITC-Bid, mouse (AID 432). (In general: In fluorescence polarisation assays a small probe gives low polarisation when free and higher when bound to something large.)

Assay [11] deals with Glyceraldehyde-3-phosphate dehydrogenase (Homo sapiens, UniProt P04406).
The target in assay [12] is T2, Bcl-2-related protein A1. The assay can be described thus: Bfl-1 inhibitors blocking BH3 peptide binding, confirmation, biochemical, TR-FRET, mouse Bfl-1 (AID 621). (TR-FRET usually uses a lanthanide donor and a delayed reading to cut background.)
The target in assay [13] is T2, Bcl-2-related protein A1. Kind of assay: Bfl-1 binding inhibitors, SAR follow-up, biochemical, fluorescence polarization (AID 1070).
A further assay concerns the target Estrogen receptor beta (Homo sapiens, UniProt Q92731).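 Also: recombinant ER-beta bound to coactivator SRC1 peptide in presence of estradiol agonist; inhibitors block coactivator peptide binding and lower the FRET signal.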
The nature of assay [14]: Artemis endonuclease inhibitor potency, dose response, biochemical, fluorescence intensity (AID 720701).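 Also: Artemis endonuclease enzyme.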 It counts as functional.
The nature of assay [15]: inhibitors of Vif binding to APOBEC3G peptide, primary screen, biochemical, TR-FRET, GST-Vif 1-94, biotin-A3G peptide, dose response retest (AID 1117319).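 Also: TR-FRET signal of purified GST-Vif binding a biotinylated A3G peptide; inhibitors lower the FRET signal by blocking Vif and A3G binding.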 The assay is classed as functional.
Assay [16] addresses Luciferin 4-monooxygenase (Photinus pyralis, UniProt P08659). Kind of assay: firefly luciferase enzyme inhibitors, dose response, biochemical, luminescence (AID 1891).
Assay [17] is described as follows: Luminescence Cell-Based Dose Confirmation HTS to Identify Inhibitors of Platelet Dense Granule Release. [Related pubchem assays: 1663 (Primary HTS), 1678 (Summary of Project)]. It counts as functional.
Assay [18] in a line: Fluorescence Cell-Based Dose Response to Identify Inhibitors of Thrombin Receptor-Activating Peptide SFLLRN-Mediated P-Selectin Induction on Platelets. [Related pubchem assays: 1663 (Primary HTS), 1889 (retest at dose ), 1891 (counterscreen), 1678 (Project Summary)]. It counts as functional.
For a further assay, the target named is Ephrin type-A receptor 4 (Mus musculus, UniProt Q03137). Kind of assay: inhibitors of EphA4 binding to KYL peptide, primary screen, biochemical, colorimetric, mouse EphA4 (AID 689). The assay is classed as functional.

“And” between values parts separate entries of the source, which are not always exact repeats. Identical values can stand only once. The source made the active and inactive calls.

Luciferin 4-monooxygenase, sequence (P08659 whole entry): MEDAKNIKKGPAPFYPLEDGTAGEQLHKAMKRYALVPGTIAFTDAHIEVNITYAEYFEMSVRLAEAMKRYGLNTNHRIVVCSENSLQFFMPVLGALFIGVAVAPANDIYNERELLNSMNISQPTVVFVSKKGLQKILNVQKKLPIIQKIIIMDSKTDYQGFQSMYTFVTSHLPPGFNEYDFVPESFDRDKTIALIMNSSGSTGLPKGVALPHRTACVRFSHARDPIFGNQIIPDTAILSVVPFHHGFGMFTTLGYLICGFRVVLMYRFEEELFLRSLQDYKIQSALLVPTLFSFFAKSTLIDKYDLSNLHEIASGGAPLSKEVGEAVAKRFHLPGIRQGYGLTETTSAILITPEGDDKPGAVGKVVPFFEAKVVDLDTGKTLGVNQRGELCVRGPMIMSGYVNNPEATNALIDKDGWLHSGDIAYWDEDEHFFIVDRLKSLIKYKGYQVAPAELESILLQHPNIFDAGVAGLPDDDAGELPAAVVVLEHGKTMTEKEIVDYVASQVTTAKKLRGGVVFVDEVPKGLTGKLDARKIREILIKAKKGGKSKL
Estrogen receptor beta, sequence (Q92731 whole entry): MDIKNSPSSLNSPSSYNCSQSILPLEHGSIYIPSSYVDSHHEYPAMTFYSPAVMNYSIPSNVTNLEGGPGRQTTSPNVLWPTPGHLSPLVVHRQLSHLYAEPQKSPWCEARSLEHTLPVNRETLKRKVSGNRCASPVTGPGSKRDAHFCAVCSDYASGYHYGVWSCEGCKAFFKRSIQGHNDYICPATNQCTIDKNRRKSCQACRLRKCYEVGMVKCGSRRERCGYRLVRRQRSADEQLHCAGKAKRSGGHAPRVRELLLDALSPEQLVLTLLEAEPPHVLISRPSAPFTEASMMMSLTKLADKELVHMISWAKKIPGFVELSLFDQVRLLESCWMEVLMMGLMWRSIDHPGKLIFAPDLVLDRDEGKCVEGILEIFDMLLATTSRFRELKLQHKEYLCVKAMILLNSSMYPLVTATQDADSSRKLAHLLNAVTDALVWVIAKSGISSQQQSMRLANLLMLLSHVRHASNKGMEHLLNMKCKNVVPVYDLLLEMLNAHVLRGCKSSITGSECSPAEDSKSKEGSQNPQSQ
Ephrin type-A receptor 4, sequence (Q03137 whole entry): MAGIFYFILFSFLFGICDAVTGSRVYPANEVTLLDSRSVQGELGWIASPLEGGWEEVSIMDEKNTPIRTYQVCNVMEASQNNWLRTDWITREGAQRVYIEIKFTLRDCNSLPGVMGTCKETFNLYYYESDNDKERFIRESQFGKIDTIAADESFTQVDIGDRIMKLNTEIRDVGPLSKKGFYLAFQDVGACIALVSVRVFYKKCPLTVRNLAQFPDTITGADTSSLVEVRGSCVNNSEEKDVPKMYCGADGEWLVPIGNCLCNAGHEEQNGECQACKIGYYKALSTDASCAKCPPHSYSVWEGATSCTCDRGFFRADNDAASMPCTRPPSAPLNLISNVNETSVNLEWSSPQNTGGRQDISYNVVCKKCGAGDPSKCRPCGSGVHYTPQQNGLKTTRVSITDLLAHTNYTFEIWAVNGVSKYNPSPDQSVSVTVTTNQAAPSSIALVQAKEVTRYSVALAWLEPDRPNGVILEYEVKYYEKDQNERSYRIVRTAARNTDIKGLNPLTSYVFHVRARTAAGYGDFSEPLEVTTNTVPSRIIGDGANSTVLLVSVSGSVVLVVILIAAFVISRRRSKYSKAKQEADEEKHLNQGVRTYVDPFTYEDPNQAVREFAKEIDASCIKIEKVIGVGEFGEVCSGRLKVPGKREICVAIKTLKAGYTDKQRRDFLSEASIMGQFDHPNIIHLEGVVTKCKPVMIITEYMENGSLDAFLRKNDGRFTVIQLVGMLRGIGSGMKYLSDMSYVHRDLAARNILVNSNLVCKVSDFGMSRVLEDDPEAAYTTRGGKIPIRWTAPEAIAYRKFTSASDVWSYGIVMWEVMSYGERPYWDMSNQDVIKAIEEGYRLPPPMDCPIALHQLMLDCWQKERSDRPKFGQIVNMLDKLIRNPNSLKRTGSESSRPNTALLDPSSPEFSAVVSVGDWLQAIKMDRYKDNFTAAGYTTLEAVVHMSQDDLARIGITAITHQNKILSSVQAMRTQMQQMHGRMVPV
Glyceraldehyde-3-phosphate dehydrogenase, sequence (P04406 whole entry): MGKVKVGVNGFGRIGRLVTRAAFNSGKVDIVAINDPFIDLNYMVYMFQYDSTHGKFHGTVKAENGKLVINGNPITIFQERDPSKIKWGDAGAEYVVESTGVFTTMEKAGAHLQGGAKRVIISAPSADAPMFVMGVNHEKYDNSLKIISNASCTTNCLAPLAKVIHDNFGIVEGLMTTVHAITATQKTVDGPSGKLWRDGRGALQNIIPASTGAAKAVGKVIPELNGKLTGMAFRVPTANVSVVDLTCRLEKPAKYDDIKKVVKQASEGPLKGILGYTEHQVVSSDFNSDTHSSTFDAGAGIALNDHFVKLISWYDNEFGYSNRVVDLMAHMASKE

As for `Cc1nc([N+](=O)[O-])c(Br)n1Cc1ccc(Cl)c(Cl)c1`, the figures for the IC50 (in assay [1]; on Hexokinase HKDC1; in assay [8]) were 0.542 µM (active), 22.8 µM (inactive) and 4.39 µM (active), respectively. In addition, the EC50 with BJ [2] was 9.74 µM (inconclusive); in the assay “cells [3]”, > 350 µM (not active); in the assay with BJ [4], > 150 µM (not active); in “cells [5]”, > 350 µM (not active); with BJ [6], > 150 µM (inconclusive); in [7], 9.66 µM (inconclusive). The CC50 in the assay with Vero was 17.5 µM (active).

Consider `Nc1ccc2c(c1)oc1ccccc12`, for which, in assay [9], the IC50 is > 100 µM (active).

In the case of `COc1ccccc1C(=O)C1Nc2ccccc2-c2nnc(SC)nc2O1` (configuration not stated), the IC50 on Bcl-2-related protein A1 [10] was 4.79 µM (active); in assay [11], > 100 µM (not active); at Bcl-2-related protein A1 [12], > 100 µM (not active) and 4.6 µM (active); on Bcl-2-related protein A1 [13], > 100 µM (not active).

Consider `COc1ccc(NC(=O)CSc2nc3c(cc2C#N)CN(C)CC3)cc1`, for which the concentration for half-maximal inhibition (IC50) is > 50 µM (not active) on Estrogen receptor beta, > 20 µM (inactive) in assay [14] and > 100 µM (active) in [15].

Consider `COC(=O)c1ccccc1NC(=O)Nc1ccc2c(c1)OCO2`, for which the EC50 was > 112 µM (not active) in assay [16], 5.7 µM (active) in assay [17] and < 100 µM (not active) in [18].

With `Cc1ccc(C2=N/C(=C\c3cccs3)C(=O)N2Nc2ccccc2)cc1`, the IC50 on Ephrin type-A receptor 4 was 2.91 µM (active).

A word on the IC50: it is the concentration needed to halve the response being measured. What is called EC50 is the concentration that produces a half-maximal response. As a reminder, the CC50 is the concentration that lowers cell viability or growth by half.
